According to patent US10696951B2, “Method for culturing pluripotent stem cells” (JTEC Corporation, priority 2014, dated 2020):

Tested on: 253G1 cells
Assay: Rotary culture of 253G1 cells with RWV bioreactor in 10 mL vessel: spheroid formation and proliferation rate
Assay type: cell-based, human
Settings: for Proliferation rate: 5 days, detached with 5 mM EDTA and TrypLE Select
Method: To perform three-dimensional culture, 253G1 cells to be seeded were detached into small spheroids (loose cell masses each having a diameter of approximately 50 μm to 200 μm) each consisting of 20 to 40 cells with 5 mM EDTA. The detached 4.9×10^5 253G cells (small spheroids obtained through chemical disrupting) were seeded in an mTeSR1 medium (10 mL) containing the ROCK (Rho-associated kinase) inhibitor Y27632 (Wako Pure Chemical Industries, Ltd., 10 μM) or an mTeSR1 medium (10 mL) free of the ROCK inhibitor Y27632 in a 10 mL RWV vessel (diameter: 5 cm; Synthecon, Incorporated), and rotary-cultured with an RWV bioreactor (Synthecon, Incorporated) at 37° C. and 8 rpm for 3 days. After culturing, a photograph of a phase contrast image of spherical spheroids produced in the culture medium was taken with the inverted microscope Axio Observer (Carl Zeiss) (FIG. 1). In addition, the diameter of each spherical spheroid was measured, and the size distribution was investigated (FIG. 2).
Subsequently, the spherical spheroids were collected, and disrupted by pipetting with a pipette to disperse the cells. The number of the cells was counted by using the automated cell counter, Countess™ (Invitrogen). From the total number of the cells in the culture medium, the proliferation rate relative to the number of the cells seeded (4.9×10^5 cells) was calculated (total number of cells/4.9×10^5 cells).
To determine a more suitable ROCK inhibitor concentration, 253G1 cells were rotary-cultured for 3 days under the same conditions as in the above except that three ROCK inhibitor concentrations (3 μM, 10 μM, or 30 μM) were used. After culturing, the number of spherical spheroids formed was 10 in the case of 3 μM, 50 in the case of 10 μM, and 20 in the case of 30 μM.
To determine a more suitable number of cells to be seeded, 253G1 cells detached into small spheroids each consisting of approximately 20 to 40 cells with 5 mM EDTA and TrypLE™ Select were seeded at 4.27×10^5, 8.55×10^5, or 1.28×10^6 cells in a 10 mL RWV vessel, and rotary-cultured for 5 days in an mTeSR1 medium containing or free of the ROCK inhibitor Y27632 (10 μM) by the same method as in the above (1). After culturing, the number of the cells was counted and the proliferation rate was calculated in the same manner as in the above.
Further, the 253G1 cells detached into small spheroids each consisting of approximately 20 to 40 cells with only 5 mM EDTA were seeded in a 10 mL RWV vessel at a number of cells seeded in the above preferred range, and rotary-cultured in a 10 μM ROCK inhibitor Y27632-containing mTeSR1 medium (10 mL) for 3 days.

[1] = 10 μM in mTeSR1, 4.9×10^5 cells seeded, 10 mL RWV vessel, 8 rpm, 3 days, detached with 5 mM EDTA
[2] = 1st run, 10 μM, 4.9 × 10^5 cells seeded, 10 mL vessel, 3 days, only 5 mM EDTA
[3] = 2nd run, 10 μM, 4.1 × 10^5 cells seeded, 10 mL vessel, 3 days, only 5 mM EDTA

SMILES: C[C@@H](N)[C@H]1CC[C@H](C(=O)Nc2ccncc2)CC1.Cl.Cl.O (relative stereo) [Y27632, (R)-(+)-trans-N-(4-pyridyl)-4-(1-aminoethyl)-cyclohexanecarboxamide.2HClH2O]
- Number of spherical spheroids formed (3 μM, 10 mL vessel, 3 days): 10
- Proliferation rate (total number of cells / cells seeded) [1]: 6.5 fold
- Total number of cells [1]: 3.1 × 10^6 cells
- Total number of cells (10 μM in mTeSR1, 4.9×10^5 cells seeded, 10 mL RWV vessel, 8 rpm, 3 days, detached with 5 mM EDTA, listed as ROCK inhibitor): 3.1×10^6 cells
- Proliferation rate (10 μM, 1.28 × 10^6 cells seeded/10 mL vessel): 1.43-fold
- Proliferation rate (10 μM, 4.27 × 10^5 cells seeded/10 mL vessel): 4.78-fold
- Formation of spherical spheroids (10 μM, 4.9×10^5 cells seeded, 10 mL vessel, 3 days, inhibitor-free medium gave no spheroids): numerous spherical spheroids were formed
- Proliferation rate (10 μM, 8.55 × 10^5 cells seeded/10 mL vessel): 1.93-fold
- Number of spherical spheroids formed (10 μM, 10 mL vessel, 3 days): 50
- Proliferation rate versus ROCK inhibitor-free medium (10 μM, 10 mL vessel, experiment repeated a plurality of times): significantly increased
- Number of spherical spheroids formed (30 μM, 10 mL vessel, 3 days): 20
- Number of only cells of spheroids [2]: 2.4 × 10^6 cells
- Number of spheroids [2]: approximately 130 spheroids
- Proliferation rate of only cells of spheroids [2]: 4.9 fold
- Number of only cells of spheroids [3]: 1.4 × 10^6 cells
- Number of spheroids [3]: approximately 100 spheroids
- Proliferation rate (total number of cells) [3]: 5.85 fold
- Proliferation rate of only cells of spheroids [3]: 3.41 fold
- Total number of cells [3]: 2.4 × 10^6 cells
